Data: patent US9695155B2, “Herbicidal substituted pyrimidinyloxy benzene compounds” (E. I. DU PONT DE NEMOURS AND COMPANY, priority 2013, dated 2017)

Key:
large (Lg) crabgrass [1] = assay: Test A preemergence; type: in vivo, Digitaria sanguinalis; details: Digitaria sanguinalis, pre-emergence, 240 h, read-out: Crabgrass, Large plant response rating
How it was run: (§1)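 Pre- and postemergence greenhouse screen. Soil: loam + sand. Spray carrier: solvent mixture, non-phytotoxic, with surfactant. Post timing at 1–2 leaves, height 2–10 cm. Readout: visual injury on a 0–100 scale roughly 10 days after application, untreated plants as reference.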

pigweed [2] = assay: Test A preemergence; type: in vivo, Amaranthus retroflexus; details: Amaranthus retroflexus, pre-emergence, 240 h, read-out: Pigweed plant response rating
How it was run: as §1

velvetleaf [3] = assay: Test A preemergence; type: in vivo, Abutilon theophrasti; details: Abutilon theophrasti, pre-emergence, 240 h, read-out: Velvetleaf plant response rating
How it was run: as §1

large (Lg) crabgrass [4] = assay: Test A postemergence; type: in vivo, Digitaria sanguinalis; details: Digitaria sanguinalis, post-emergence, 240 h
How it was run: as §1

morningglory = assay: Test A postemergence; type: in vivo, Ipomoea spp.; details: Ipomoea, post-emergence, 240 h
How it was run: as §1

pigweed [5] = assay: Test A postemergence; type: in vivo, Amaranthus retroflexus; details: Amaranthus retroflexus, post-emergence
How it was run: as §1

velvetleaf [6] = assay: Test A postemergence; type: in vivo, Abutilon theophrasti; details: Abutilon theophrasti, post-emergence, 240 h
How it was run: as §1

corn [7] = assay: Test A postemergence; type: in vivo, Zea mays; details: Zea mays, post-emergence, 240 h
How it was run: as §1

Italian ryegrass = assay: Test C postemergence; type: in vivo, Lolium multiflorum; details: Lolium multiflorum, post-emergence
Excerpt: (§2) Seeds of plant species selected from blackgrass (Alopecurus myosuroides), Italian ryegrass (Lolium multiflorum), wheat, winter (winter wheat, Triticum aestivum), galium (catchweed bedstraw, Galium aparine), corn (Zea mays), large (Lg) crabgrass (Digitaria sanguinalis), giant foxtail (Setaria faberii), johnsongrass (Sorghum halepense), lambsquarters (Chenopodium album), morningglory (Ipomoea coccinea), yellow nutsedge (Cyperus esculentus), pigweed (Amaranthus retroflexus), ragweed (common ragweed, Ambrosia elatior), soybean (Glycine max), barnyardgrass (Echinochloa crus-galli), oilseed rape (Brassica napus), waterhemp (common waterhemp, Amaranthus rudis), kochia (Kochia scoparia), wild oat (Avena fatua), surinam grass (Brachiaria decumbens), foxtail, green (green foxtail, Setaria viridis), goosegrass (Eleusine indica), bromegrass, downy (downy bromegrass, Bromus tectorum), nightshade (eastern black nightshade, Solanum ptycanthum), cocklebur (common cocklebur, Xanthium strumarium), cupgrass, woolly (woolly cupgrass, Eriochloa villosa), bermudagrass (Cynodon dactylon), sunflower, (common oilseed sunflower, Helianthus annuus), Russian thistle (Salsola kali), and velvetleaf (Abutilon theophrasti) were planted into a blend of loam soil and sand and treated preemergence with test chemicals formulated in a non-phytotoxic solvent mixture which included a surfactant.
(§3) At the same time, plants selected from these crop and weed species and also barley, winter (winter barley, Hordeum vulgare), windgrass (Apera spica-venti), chickweed (common chickweed, Stellaria media), deadnettle (henbit deadnettle, Lamium amplexicaule), and canarygrass (littleseed canarygrass, Phalaris minor) were planted in pots containing Redi-Earth® planting medium (Scotts Company, 14111 Scottslawn Road, Marysville, Ohio 43041) comprising spaghnum peat moss, vermiculite, wetting agent and starter nutrients and treated with postemergence applications of test chemicals formulated in the same manner. Plants ranged in height from 2 to 18 cm (1- to 4-leaf stage) for postemergence treatments. Treated plants and controls were maintained in a greenhouse for 13 to 15 days, after which time all species were compared to controls and visually evaluated. Plant response ratings, summarized in Table C, are based on a scale of 0 to 100 where 0 is no effect and 100 is complete control. A dash (-) response means no test result.

corn [8] = assay: Test C postemergence; type: in vivo, Zea mays; details: Zea mays, post-emergence
Excerpt: as §2, §3

giant foxtail = assay: Test C postemergence; type: in vivo, Setaria faberii; details: Setaria faberi, post-emergence
Excerpt: as §2, §3

johnsongrass = assay: Test C postemergence; type: in vivo, Sorghum halepense; details: Sorghum halepense, post-emergence
Excerpt: as §2, §3

pigweed [9] = assay: Test C postemergence; type: in vivo, Amaranthus retroflexus; details: Amaranthus retroflexus, post-emergence
Excerpt: as §2, §3

soybean = assay: Test C postemergence; type: in vivo, Glycine max; details: Glycine max, post-emergence
Excerpt: as §2, §3

kochia = assay: Test C postemergence; type: in vivo, Kochia scoparia; details: Bassia scoparia, post-emergence
Excerpt: as §2, §3

wild oat = assay: Test C postemergence; type: in vivo, Avena fatua; details: Avena fatua, post-emergence
Excerpt: as §2, §3

[10] = 125 g ai/ha, 0 to 100 scale where 0 is no effect and 100 is complete control
[11] = 500 g ai/ha, 0 to 100 scale, 0 no effect, 100 complete control, approx. 10 days
[12] = Postemergence, 31 g ai/ha, scale 0 to 100 (0 no effect, 100 complete control), 13 to 15 days
[13] = Postemergence, 62 g ai/ha, scale 0 to 100 (0 no effect, 100 complete control)

Clc1cnn(-c2ccccc2Oc2ncc(Br)cn2)c1 [Compound 5, 5-bromo-2-[2-(4-chloro-1H-pyrazol-1-yl)phenoxy]pyrimidine]
5%: pest or weed control at 62 g/ha (Italian ryegrass; Postemergence, 62 g ai/ha, scale 0 to 100 (0 no effect, 100 complete control), read-out: Plant response rating, Ryegrass, Italian) | pest or weed control at 125 g/ha (giant foxtail; 125 g ai/ha, postemergence, read-out: Plant response rating (0 to 100), Foxtail, Giant) | pest or weed control at 31 g/ha (giant foxtail; Postemergence, 31 g ai/ha, scale 0 to 100 (0 no effect, 100 complete control), 13 to 15 days, read-out: Plant response rating, Foxtail, Giant) | pest or weed control at 62 g/ha (giant foxtail; Postemergence, 62 g ai/ha, scale 0 to 100 (0 no effect, 100 complete control), read-out: Plant response rating, Foxtail, Giant) | pest or weed control at 125 g/ha (johnsongrass; 125 g ai/ha, postemergence, read-out: Plant response rating (0 to 100), Johnsongrass) | pest or weed control at 31 g/ha (johnsongrass; Postemergence, 31 g ai/ha, scale 0 to 100 (0 no effect, 100 complete control), 13 to 15 days, read-out: Plant response rating, Johnsongrass) | pest or weed control at 62 g/ha (johnsongrass; Postemergence, 62 g ai/ha, scale 0 to 100 (0 no effect, 100 complete control), read-out: Plant response rating, Johnsongrass) | pest or weed control at 62 g/ha (wild oat; Postemergence, 62 g ai/ha, scale 0 to 100 (0 no effect, 100 complete control), read-out: Plant response rating, Oat, Wild)
55%: Soybean plant response rating (crop injury, 0-100 scale) at 31 g/ha (soybean; [12]) | pest or weed control at 62 g/ha (kochia; Postemergence, 62 g ai/ha, scale 0 to 100 (0 no effect, 100 complete control), read-out: Plant response rating, Kochia)
30%: pest or weed control at 125 g/ha (large (Lg) crabgrass [4]; 125 g ai/ha, 0 to 100 scale where 0 is no effect and 100 is complete control, read-out: Plant response rating, Crabgrass, Large) | plant injury at 500 g/ha (corn [7]; 500 g ai/ha, 0 to 100 scale, 0 no effect, 100 complete control, read-out: Plant response rating Corn) | pest or weed control at 250 g/ha (wild oat; 250 g ai/ha, postemergence, read-out: Plant response rating (0 to 100), Oat, Wild)
20%: Corn plant response rating (crop injury, 0 = no effect, 100 = complete kill) at 62 g/ha (corn [8]; [13]) | pest or weed control at 31 g/ha (kochia; Postemergence, 31 g ai/ha, scale 0 to 100 (0 no effect, 100 complete control), 13 to 15 days, read-out: Plant response rating, Kochia)
80%: pest or weed control at 500 g/ha (large (Lg) crabgrass [4]; 500 g ai/ha, 0 to 100 scale, 0 no effect, 100 complete control, read-out: Plant response rating Crabgrass, Large) | pest or weed control at 125 g/ha (morningglory; 125 g ai/ha, 0 to 100 scale where 0 is no effect and 100 is complete control, read-out: Plant response rating, Morningglory)
10%: pest or weed control at 125 g/ha (Italian ryegrass; 125 g ai/ha, postemergence, read-out: Plant response rating (0 to 100), Ryegrass, Italian) | pest or weed control at 250 g/ha (giant foxtail; 250 g ai/ha, postemergence, read-out: Plant response rating (0 to 100), Foxtail, Giant) | pest or weed control at 250 g/ha (johnsongrass; 250 g ai/ha, postemergence, read-out: Plant response rating (0 to 100), Johnsongrass) | pest or weed control at 125 g/ha (wild oat; 125 g ai/ha, postemergence, read-out: Plant response rating (0 to 100), Oat, Wild)
70%: plant injury at 250 g/ha (corn [8]; 250 g ai/ha, postemergence, read-out: Plant response rating (0 to 100), Corn) | pest or weed control at 125 g/ha (kochia; 125 g ai/ha, postemergence, read-out: Plant response rating (0 to 100), Kochia)
95%: Soybean plant response rating (crop injury, 0-100 scale) at 125 g/ha (soybean; 125 g ai/ha, postemergence, read-out: Plant response rating (0 to 100), Soybean) | Soybean plant response rating (crop injury, 0-100 scale) at 250 g/ha (soybean; 250 g ai/ha, postemergence)
98%: pest or weed control at 31 g/ha (pigweed [9]; Postemergence, 31 g ai/ha, scale 0 to 100 (0 no effect, 100 complete control), 13 to 15 days, read-out: Plant response rating, Pigweed) | pest or weed control at 62 g/ha (pigweed [9]; Postemergence, 62 g ai/ha, scale 0 to 100 (0 no effect, 100 complete control), read-out: Plant response rating, Pigweed)
60%: plant injury at 125 g/ha (corn [8]; 125 g ai/ha, postemergence, read-out: Plant response rating (0 to 100), Corn)
100%: pest or weed control at 125 g/ha (pigweed [2]; [10]) | pest or weed control at 500 g/ha (pigweed [2]; [11]) | pest or weed control at 500 g/ha (velvetleaf [3]; [11]) | pest or weed control at 125 g/ha (pigweed [5]; 125 g ai/ha, 0 to 100 scale where 0 is no effect and 100 is complete control, read-out: Plant response rating, Pigweed) | pest or weed control at 500 g/ha (pigweed [5]; 240 h, 500 g ai/ha, 0 to 100 scale, 0 no effect, 100 complete control, read-out: Plant response rating Pigweed) | pest or weed control at 125 g/ha (velvetleaf [6]; 125 g ai/ha, 0 to 100 scale where 0 is no effect and 100 is complete control, read-out: Plant response rating, Velvetleaf) | pest or weed control at 500 g/ha (velvetleaf [6]; 500 g ai/ha, 0 to 100 scale, 0 no effect, 100 complete control, read-out: Plant response rating Velvetleaf) | pest or weed control at 125 g/ha (pigweed [9]; 125 g ai/ha, postemergence, read-out: Plant response rating (0 to 100), Pigweed) | pest or weed control at 250 g/ha (pigweed [9]; 250 g ai/ha, postemergence, read-out: Plant response rating (0 to 100), Pigweed) | pest or weed control at 250 g/ha (kochia; 250 g ai/ha, postemergence, read-out: Plant response rating (0 to 100), Kochia)
90%: pest or weed control at 125 g/ha (large (Lg) crabgrass [1]; [10]) | pest or weed control at 500 g/ha (large (Lg) crabgrass [1]; [11]) | pest or weed control at 125 g/ha (velvetleaf [3]; [10]) | pest or weed control at 500 g/ha (morningglory; 500 g ai/ha, 0 to 100 scale, 0 no effect, 100 complete control, read-out: Plant response rating Morningglory) | Soybean plant response rating (crop injury, 0-100 scale) at 62 g/ha (soybean; [13])
0%: Corn plant response rating (crop injury, 0 = no effect, 100 = complete kill) at 125 g/ha (corn [7]; [10]) | pest or weed control at 31 g/ha (Italian ryegrass; Postemergence, 31 g ai/ha, scale 0 to 100 (0 no effect, 100 complete control), 13 to 15 days, read-out: Plant response rating, Ryegrass, Italian) | pest or weed control at 31 g/ha (wild oat; Postemergence, 31 g ai/ha, scale 0 to 100 (0 no effect, 100 complete control), 13 to 15 days, read-out: Plant response rating, Oat, Wild)
15%: Corn plant response rating (crop injury, 0 = no effect, 100 = complete kill) at 31 g/ha (corn [8]; [12])
25%: pest or weed control at 250 g/ha (Italian ryegrass; 250 g ai/ha, postemergence, read-out: Plant response rating (0 to 100), Ryegrass, Italian)
